# Source: publication PMC5090206, “Fluselenamyl: A Novel Benzoselenazole Derivative for PET Detection of Amyloid Plaques (Aβ) in Alzheimer’s Disease” (Scientific Reports, 2016)
# Like-named read-outs stand apart in the source and are kept apart here.
# Assays:
# AD homogenates [1] = experiment: Competition of unlabeled ligands against [18F]-9 binding on AD homogenates; set-up: species or system human; settings: for displacement of [18F]-9 specific binding: AD homogenates, unlabeled competitor
# Protocol: Literature precedents indicate the presence of at least three different binding sites, characterized as BS1, BS2 and BS3 on the Aβ fibrils in vitro[24] and extracts from AD homogenates. […] Further, to evaluate ability of [^18F]-9 for labeling Aβ in autopsy confirmed human brain sections, autoradiography and immunohistochemical correlations were also performed.
# [2] = normal mice, cited from earlier work
# [3] = comparison values, no reference given; cited from earlier work
# AD homogenates [4] = settings: read-out: binding affinity with AD homogenates; cited from earlier work
# Aβ plaques = Aβ plaques (Homo sapiens, UniProt P05067); experiment: Histological staining of human AD brain tissue sections; settings: AD frontal lobe sections
# Protocol: To further assess ability of the 5 to label Aβ plaques in human brain, staining experiments were also performed with postmortem tissues from clinically-characterized AD patients[35][36] As a positive control, a highly specific anti-Aβ antibody (10D5, Eli Lilly, Indianapolis, IN) was used to ascertain the presence of Aβ plaques (Fig. 4A), using well-established procedures for assessment of Aβ plaques in postmortem brain[37]. […] Noticeably, 5 also indicated proficient and distinct labeling of plaque and leptomeningeal vessels (cerebral amyloid angiopathy; CAA) (Fig. 4B). […] This high specificity of 5 for Aβ could be attributed to presence of a benzoselenazole ring within Fluselenamyl. Overall, the ability and sensitivity of 5 to detect diffuse plaques and specificity for AD could represent an important advancement to enable PET imaging of mildly demented individuals, prior to onset of symptoms.
# Scientific Reports Version of August 4, 2016
# µm) were cut in the coronal plane on a freezing sliding microtome and stored at -20°C. 7,8 Tissue was stained as free-floating sections. Prior to staining, tissue sections were permeabilized with PBS-Tritron-X-100 (0.25%) for 30 minutes, and then blocked with 1% non-fat dry milk in PBS-Ttiton-X-100 for 60 minutes.
# Hippocampus tissue sections of APP+/-/PS1+/- and age-matched control BL/6 (WT, SI Figure 3) were incubated with fluorescent molecule 5 (100 nM dissolved in 1% ethanol in PBS) for 60 minutes, and washed 3-times with PBS-Triton-X-100.9 Thereafter, tissue sections were incubated with mouse-anti-Aβ (mHJ3.4) 7 that was directly conjugated to Alexa 568 for 90 minutes and washed 3-times with PBS-Triton-X-100.
# Tissue sections were mounted onto SuperFrost Plus slides, dried overnight at room temperature, and then sealed with Fluoromount G (Southern Biotech, Birmingham, AL). […]
# other neurodegenerative diseases (SI, Figure 4A & 4B). Sections were visualized, processed, and analyzed using a Pascal confocal microscope. […]
# Sequence of Aβ plaques (P05067 672-711 limits assumed): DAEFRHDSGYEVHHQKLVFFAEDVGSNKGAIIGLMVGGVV
molecule,measurement,setting,value
[11CH3]Nc1ccc(-c2nc3ccc(O)cc3s2)cc1 [PiB],displacement of [18F]-9 specific binding,AD homogenates [1],significant displacement
CNc1ccc(/C=C/c2ccc(OCCOCCOCC[18F])nc2)cc1 [[^18F]-AV-45],%ID/g (brain),[2]; 2 min,7.33 ± 1.54 %ID/g
same,%ID/g (brain),[2]; 2 h,1.80 ± 0.07 %ID/g
same,brain uptake ratio 2 min/2 h,[2],4.07
same,log P,[3],2.4
CN(C)c1ccc(-c2cn3cc(I)ccc3n2)cc1 [IMPY],displacement of [18F]-9 specific binding,AD homogenates [1],significant displacement
same,Ki,AD homogenates [1]; competition against [18F]-9 on AD homogenates,6.3 nM
CNc1ccc(/C=C/c2ccc(OCCOCCOCCF)cc2)cc1 [[^18F]-Florbetaben],%ID/g (brain),[2]; 2 min,4.77 %ID/g
same,%ID/g (brain),[2]; 4 h,0.95 %ID/g
same,brain uptake ratio 2 min/4 h,[2],5.02
same,Kd,AD homogenates [4],16 nM
same,log P,[3],3.22
thioflavin S [reference compound],staining of diffuse plaques,Aβ plaques,only weak staining of diffuse plaques
O=C(O)c1cc(/N=N/c2ccc(-c3ccc(/N=N/c4ccc(O)c(C(=O)O)c4)cc3)cc2)ccc1O [Chrysamine G],displacement of [18F]-9 specific binding,AD homogenates [1],no displacement
CNc1ccc(/C=C/c2ccc(OCCOCCOCCF)nc2)cc1 [[^18F]-AV-45],Kd,AD homogenates [4],3.7 nM
Nc1ccc(C=Cc2ccc(OCCOCCOCC[18F])nc2)cc1 [desmethylated],brain uptake of metabolites of [18F]-AV-45,[2]; at 2 min,4.5 % ID/g
CNc1ccc(-c2nc3ccc(O)cc3s2)cc1F [[^18F]-Flutemetamol],Kd,AD homogenates [4],6.7 nM
